Test results published in PMC11317440, “Soloxolone para-methylanilide effectively suppresses aggressive phenotype of glioblastoma cells including TGF-β1-induced glial-mesenchymal transition in vitro and inhibits growth of U87 glioblastoma xenografts in mice” (Frontiers in Pharmacology, 2024).

Key:
TGF-β1-induced U87 cells = assay: Cell morphology (cell size) of TGF-β1-induced U87 cells; format: cell-based, human; conditions: TGF-β1 50 ng/mL, non-toxic concentrations, 48 h
Protocol: After seeding at a concentration of 5,000 cells/well in triplicate in 96-well plates and incubating overnight, U87 and U118 cells were exposed to TGF-β1 (50 ng/mL) and non-toxic concentrations of soloxolone amides for 48 h. An EVOS XL Core microscope with an integrated CMOS camera (Thermo Fisher Scientific, USA) was then used to examine cell morphology at ×20 magnification. Aspect ratio (AR) and area were quantified for at least 150 cells in each experimental group using ImageJ software (NIH, USA).

U87 primary tumorspheres = test system: U87 primary tumorspheres; design: method as in Markov et al., 2023; conditions: ref Markov et al., 2023; cited from earlier work
[1] = test system: U87 glioblastoma xenograft; design: method as in Markov et al., 2022a; conditions: 9 administered at a similar dose and schedule; ref Markov et al., 2022a; cited from earlier work
U87 glioblastoma cells = assay: MTT cell viability assay, U87 cells, 48 h; format: cell-based, human; conditions: for relative cytotoxicity: 48 h of incubation, U87; for MNTC: Homo sapiens, U-87 MG, 48 h, read-out: non-toxic concentration that reduced U87 cell viability by less than 10%
Protocol: Cells were seeded in quadruplicate in 96-well plates at 10,000 cells/well and allowed to adhere overnight. The medium was then replaced with serum-free DMEM containing increasing concentrations of soloxolone amides for 48 h. After incubation, 3-(4,5-dimethylthiazol-2-yl)-2,5-diphenyltetrazolium bromide (MTT dye) was added at a final concentration of 0.5 mg/mL and left for 2 h. The resulting formazan crystals were dissolved in DMSO and the optical density was measured at 570 nm using a Multiscan RC plate reader (Thermo LabSystems, Helsinki, Finland).

TGF-β1-treated U87 cells = assay: Adhesion of U87 cells to culture plastic (TrypLE treatment assay); format: cell-based, human; conditions: TGF-β1 50 ng/mL, non-toxic concentrations, 48 h
Protocol: Adhesiveness of glioblastoma cells was assessed by two independent methods. First, cell adhesion to culture plastic was tested using a trypsin treatment assay, as previously described ([Sava et al., 2004]; [Mazuryk et al., 2015]; [van Dijk et al., 2017]). Briefly, U87 and U118 cells (10,000 cells per well of a 96-well plate, n = 4) were cultured with TGF-β1 (50 ng/mL) and non-toxic concentrations of soloxolone amides for 48 h and then treated with a 1:20 dilution of TrypLE Express (Gibco, USA) in PBS for 3 min at 37°C. Non-adherent cells were then removed by a triple PBS wash, and the remaining adherent cells were fixed with 4% formaldehyde and stained with crystal violet dye (0.1% w/v). Images were captured using the iBright 1,500 Imaging System (Invitrogen, USA), and the cell-occupied area was calculated using ImageJ. Alternatively, the number of adherent cells was quantified using the MTT assay.

[2] = Toxicity assessment in U87 glioblastoma-bearing mice; format: in vivo, athymic nude mice; conditions: 7 20 mg/kg i.p. or TMZ 10 mg/kg i.p. injected alone
Protocol: During the experiment, the general status and body weight of the animals were monitored. At the end of the experiment, livers and kidneys were collected and organ indices were calculated as (organ weight/body weight) × 100%, followed by the normalization of organ indices of experimental mice to organ indices of control mice.

U87 cells [3] = assay: MTT assay 72 h, 7 and TMZ alone and combined, synergy (HSA), U87; format: cell-based, human
Protocol: (§1) The drug synergy score was calculated for the dose-response matrix according to the highest single-agent (HSA) model using the SynergyFinder + web application (https://www.synergyfinder.org/).

[4] = test system: ROS production in U87 cells; assay: Intracellular ROS (DCFDA staining, flow cytometry), U87; format: cell-based, human; conditions: U87, TMZ 125 μM, 7 100 nM, NAC 2 mM, 72 h
Protocol: Intracellular ROS levels were measured according to previously published studies ([Han et al., 2008]; [Samandari-Bahraseman et al., 2023]; [Kopsida et al., 2024]), using the DCFDA/H2DCFDA Cellular ROS Assay Kit (Abcam, Cambridge, United Kingdom). U87 cells were incubated with 7 and TMZ with or without NAC for 72 h (n = 3). Cells were then washed with PBS and incubated with 20 µM H2DCFDA for 30 min under standard conditions, followed by the removal of H2DCFDA-containing medium and double washing with PBS.
(§2) After staining, 10,000 cells per sample were analyzed on a NovoCyte flow cytometer using NovoExpress software (ACEA Biosciences, Inc., USA).

[5] = test system: U87 glioblastoma tumor tissue; assay: Histology and immunohistochemistry of U87 xenograft tumors; format: in vivo, athymic nude mice; conditions: day 19
Protocol: For the histological study, the tumor specimens were fixed in 10% neutral-buffered formalin (BioVitrum, Moscow, Russia), dehydrated in ascending ethanols and xylols and embedded in HISTOMIX paraffin (BioVitrum, Russia). The paraffin sections (3–4 µm) were sliced on a Microm HM 355S microtome (Thermo Fisher Scientific, Waltham, MA, USA) and stained with hematoxylin and eosin.
For the immunohistochemical study, the tumor sections were deparaffinized and rehydrated. Antigen retrieval was carried out after exposure in a microwave oven at 700 W. The samples were incubated with anti-Ki-67 (ab16667, Abcam, Boston, MA, USA) (n = 3), anti-GFAP (ab194325, Abcam, USA) (n = 3), and anti-N-cadherin (ab76011, Abcam, USA) (n = 3) primary antibodies according to the manufacturer’s protocol. Then, the sections were incubated with secondary horseradish peroxidase (HPR)-conjugated antibodies, exposed to the 3,30-diaminobenzidine (DAB) substrate (Rabbit Specific HRP/DAB (ABC) Detection IHC Kit, ab64261, Abcam, USA) and stained with Mayer’s hematoxylin.
Five to ten random fields were examined from the tumor specimens of three mice in each group, for a total of 15–30 test fields.

[6] = test system: U87 glioblastoma xenograft; assay: U87 glioblastoma xenograft model; format: in vivo, athymic nude mice; conditions: end of the experiment (day 19); 7 20 mg/kg i.p., TMZ 10 mg/kg i.p.
Protocol: A xenograft model of tumor progression was induced by subcutaneous (s.c.) implantation of U87 glioblastoma cells (2×10^7 cells/mL) suspended in 0.1 mL of saline buffer into the left flank of athymic nude mice. On day 4 after tumor transplantation, the mice were divided into four groups: (1) mice received intraperitoneal (i.p.) injections of 10% Tween-80 (vehicle) (n = 6); (2) mice received i.p. injections of compound 7 in 10% Tween-80 at a dose of 20 mg/kg (n = 5); (3) mice received i.p. injections of TMZ in saline buffer at a dose of 10 mg/kg (n = 5); (4) mice received combination therapy of compound 7 and TMZ at the same dosage and administration route (n = 6). Compound 7 was administered three times per week; in total seven injections were performed. TMZ was administered daily except weekends; in total eleven injections were performed. During the experiment, the tumor volumes were determined three times per week using caliper measurements and were calculated as V = (D × d^2)/2, where D is the longest diameter of the tumor node and d is the shortest diameter of the tumor node perpendicular to D. Mice were sacrificed on day 19 after tumor transplantation and material (tumor nodes, livers, and kidneys) was collected for subsequent analysis.

U118 cells = assay: MTT assay 72 h, 7 and TMZ alone and combined, synergy (HSA), U118; format: cell-based, human
Protocol: as §1

EPNT-5 cells = assay: MTT assay 72 h, 7 and TMZ alone and combined, synergy (HSA), EPNT-5; format: cell-based, mouse; conditions: MTT
Protocol: as §1

U87 cells [7] = assay: Annexin V-FITC/propidium iodide flow cytometry, U87, 72 h, TMZ/7/NAC; format: cell-based, human; conditions: U87, TMZ 500 μM, 7 600 nM
Protocol: […] To quantify the total proportion of apoptotic cells in control and experimental groups, the events accumulated in the lower right quadrant (early apoptosis) and upper right quadrant (late apoptosis) were summarized.
as §2

CC1(C)C(=O)C(C#N)=C[C@]2(C)C3=CC(=O)[C@@H]4[C@@H]5C[C@@](C)(C(=O)NCCc6c[nH]c7ccccc67)CC[C@]5(C)CC[C@@]4(C)[C@]3(C)CCC12 (stereo partly drawn) [compound 9]
effect on size/morphology of TGF-β1-induced U87 cells (TGF-β1-induced U87 cells): restored their morphological characteristics to the control cells | concentration causing a large-scale reduction of spheroids (U87 primary tumorspheres): 4 µM | reduction in tumor weight compared to the vehicle-treated group [1]: 3.4 fold | relative cytotoxicity (U87 glioblastoma cells): moderate | MNTC (U87 glioblastoma cells): 100 nM

CC1(C)C(=O)C(C#N)=C[C@]2(C)C3=CC(=O)[C@@H]4[C@@H]5C[C@@](C)(C(=O)Nc6cccnc6)CC[C@]5(C)CC[C@@]4(C)[C@]3(C)CCC12 (stereo partly drawn) [compound 6, N-(pyridin-3-yl)-2-cyano-3,12-dioxo-18βH-olean-9(11),1(2)-dien-30-amide]
relative cytotoxicity (U87 glioblastoma cells): moderate | MNTC (U87 glioblastoma cells): 100 nM

CN(C)CCNC(=O)[C@@]1(C)CC[C@]2(C)CC[C@]3(C)[C@H](C(=O)C=C4[C@@]5(C)C=C(C#N)C(=O)C(C)(C)C5CC[C@]43C)[C@@H]2C1 (stereo partly drawn) [compound 3, N-(2′-(dimethylamino)ethyl)-2-cyano-3,12-dioxo-18βH-olean-9(11),1(2)-dien-30-amide]
relative cytotoxicity (U87 glioblastoma cells): low | MNTC (U87 glioblastoma cells): 300 nM | adhesion of TGF-β1-treated U87 cells to culture plastic (crystal violet) (TGF-β1-treated U87 cells): restoring it to control levels

CN(C)CCCNC(=O)[C@@]1(C)CC[C@]2(C)CC[C@]3(C)[C@H](C(=O)C=C4[C@@]5(C)C=C(C#N)C(=O)C(C)(C)C5CC[C@]43C)[C@@H]2C1 (stereo partly drawn) [compound 4, N-(3′-(dimethylamino)propyl)-2-cyano-3,12-dioxo-18βH-olean-9(11),1(2)-dien-30-amide]
relative cytotoxicity (U87 glioblastoma cells): low | MNTC (U87 glioblastoma cells): 300 nM

CC(C)(C)c1cc(CCCNC(=O)[C@@]2(C)CC[C@]3(C)CC[C@]4(C)[C@H](C(=O)C=C5[C@@]6(C)C=C(C#N)C(=O)C(C)(C)C6CC[C@]54C)[C@@H]3C2)cc(C(C)(C)C)c1O (stereo partly drawn) [compound 8, N-(3′-(3″,5″-di-tert-butyl-4″-hydroxyphenyl)propyl)-2-cyano-3,12-dioxo-18βH-olean-9(11),1(2)-dien-30-amide]
relative cytotoxicity (U87 glioblastoma cells): high | MNTC (U87 glioblastoma cells): 50 nM

Cn1nnc2c(C(N)=O)ncn2c1=O [TMZ, temozolomide, reference compound]
toxic effects (body weight and organ indices) [2]: no toxic effects | IC50 (U87 cells [3]; MTT): 213 µM | reduction of the cytotoxic effect by NAC (U87 cells [3]; U87, NAC 2 mM, TMZ 125 μM, 7 100 nM): 22.3% | ROS accumulation (in words) [4]: did not increase ROS accumulation | N-cadherin and GFAP levels in tumor sections (immunohistochemistry) [5]: significantly reduced their levels | reduction in the numerical density of Ki-67-positive cells compared to vehicle [5]: 9 fold | reduction in tumor weight compared to the vehicle [6]: 21.9 fold | IC50 (U118 cells; MTT): > 500 µM | reduction of the cytotoxic effect by NAC (U118 cells; U118, NAC 2 mM, TMZ 125 μM, 7 100 nM): 32.5% | IC50 (EPNT-5 cells): > 500 µM | cells in the right quadrants (apoptosis) (U87 cells [7]): 9%

CC1(C)C(=O)C(C#N)=C[C@]2(C)C3=CC(=O)[C@@H]4[C@@H]5C[C@@](C)(C(=O)NCCCCCO)CC[C@]5(C)CC[C@@]4(C)[C@]3(C)CCC12 (stereo partly drawn) [compound 2, N-(5′-hydroxypentyl)-2-cyano-3,12-dioxo-18βH-olean-9(11),1(2)-dien-30-amide]
relative cytotoxicity (U87 glioblastoma cells): moderate | MNTC (U87 glioblastoma cells): 100 nM

CC1(C)C(=O)C(C#N)=C[C@]2(C)C3=CC(=O)[C@@H]4[C@@H]5C[C@@](C)(C(=O)Nc6ccc(Br)cc6)CC[C@]5(C)CC[C@@]4(C)[C@]3(C)CCC12 (stereo partly drawn) [compound 5, N-(4′-bromophenyl)-2-cyano-3,12-dioxo-18βH-olean-9(11),1(2)-dien-30-amide]
effect on size/morphology of TGF-β1-induced U87 cells (TGF-β1-induced U87 cells): restored their morphological characteristics to the control cells | relative cytotoxicity (U87 glioblastoma cells): high | MNTC (U87 glioblastoma cells): 50 nM
